In US8394967B2, “Antioxidant inflammation modulators: C-17 homologated oleanolic acid derivatives” (Reata Pharmaceuticals, Inc., priority 2008, dated 2013):

Tests used:
[1] = TP levels in mouse brain after feeding in diet (LC/MS); type: in vivo; conditions: CD-1 mice fed 200 or 400 mg/kg diet for 3.5 days
Method: FIG. 7. […] CD-1 mice were fed either 200 or 400 mg/kg diet of either TP-319 or TP-500 for 3.5 days, and TP levels in the brains of the mice were analyzed by LC/MS. The structures of TP-319 and TP-500 are shown herein.

[2] = Aqueous solubility determination (Millipore Multiscreen solubility filter plate, UV/vis); type: physicochemical; conditions: Universal Aqueous Buffer pH 7.4, 90 minutes at room temperature
Method: Aqueous Solubility Determination. The following procedure was used to obtain the aqueous solubility results summarized in Example 4. Step 1. Determination of optimal UV/vis wavelengths and generation of standard curves for a compound of interest: • (1) For eight standard calibration curves (one plate), prepare 34 mL of 50:50 (v:v) universal buffer:acetonitrile in a 50 mL tube. • (2) Using a multichannel pipet, dispense (in μL) the buffer:acetonitrile in a deep well plate as follows:
• (6) Cover plate with lid and shake (200-300 rpm) at room temperature for 20 minutes. • (7) Mix all wells by pipetting up and down 10 times. • (8) Transfer 120 μL from each well to a UV transparent plate. Cover and shake for 3-5 minutes. Remove any bubbles in the wells using a pipet. • (9) Read from 220 nm to 500 nm at 10 nm increments on a spectrophotometer (e.g., SpectraMax®).
Step 2. […]
Solubility Protocol: • (a) Add 285 μL of Universal Aqueous Buffer to desired wells of the Millipore™ Multiscreen® Solubility filter plate. • (b) Add 15 μL of 10 mM compound in DMSO to the appropriate wells. […] Remove any bubbles with a pipet. • (i) Measure the absorbance of each well in the plate on the spectrophotometer (UV/vis) at the desired wavelength. […]
The aqueous solubility of the compounds shown here was determined using the procedures outlined in Example 1.

Structure (SMILES): CC1(C)CC[C@]2(C(=O)NCC(F)(F)F)CC[C@]3(C)[C@H](C(=O)C=C4[C@@]5(C)C=C(C#N)C(=O)C(C)(C)[C@@H]5CC[C@]43C)[C@@H]2C1 [TP-500]
- TP levels in the brains of the mice [1]: Higher Levels in Mouse Brain than CDDO-EA (TP-319)

Structure (SMILES): CC1(C)CC[C@]2(N)CC[C@]3(C)[C@H](C(=O)C[C@@H]4[C@@]5(C)C=C(C#N)C(=O)C(C)(C)[C@@H]5CC[C@]43C)[C@@H]2C1 [Compound 63208]
- Aqueous Solubility [2]: 9.49 µM

Structure (SMILES): CC1(C)CC[C@]2(N)CC[C@]3(C)[C@H](C(=O)C[C@@H]4[C@@]5(C)C=C(C#N)C(=O)C(C)(C)[C@@H]5CC[C@]43C)[C@@H]2C1 [Compound 63198]
- Aqueous Solubility [2]: 163.6 µM
